The results in this text go back to ChEMBL document CHEMBL1140483, “High dopamine transporter selectivity can be displayed by remarkably simple non-nitrogen containing inhibitors” (Bioorg Med Chem Lett, 2007).

For test [1], the species on record is Homo sapiens. Nature of the test: Selectivity for human DAT over human NET.
The target of test [2] is Sodium-dependent noradrenaline transporter (Homo sapiens, UniProt P23975). As to the kind of experiment: Displacement of [125I]RTI55 from human NET transfected in COS1 cells. In kind it is cell-based, COS-1. (In a radioligand displacement assay an active substance lowers the binding of a labelled ligand.)
Sequence of Sodium-dependent noradrenaline transporter (P23975 whole entry): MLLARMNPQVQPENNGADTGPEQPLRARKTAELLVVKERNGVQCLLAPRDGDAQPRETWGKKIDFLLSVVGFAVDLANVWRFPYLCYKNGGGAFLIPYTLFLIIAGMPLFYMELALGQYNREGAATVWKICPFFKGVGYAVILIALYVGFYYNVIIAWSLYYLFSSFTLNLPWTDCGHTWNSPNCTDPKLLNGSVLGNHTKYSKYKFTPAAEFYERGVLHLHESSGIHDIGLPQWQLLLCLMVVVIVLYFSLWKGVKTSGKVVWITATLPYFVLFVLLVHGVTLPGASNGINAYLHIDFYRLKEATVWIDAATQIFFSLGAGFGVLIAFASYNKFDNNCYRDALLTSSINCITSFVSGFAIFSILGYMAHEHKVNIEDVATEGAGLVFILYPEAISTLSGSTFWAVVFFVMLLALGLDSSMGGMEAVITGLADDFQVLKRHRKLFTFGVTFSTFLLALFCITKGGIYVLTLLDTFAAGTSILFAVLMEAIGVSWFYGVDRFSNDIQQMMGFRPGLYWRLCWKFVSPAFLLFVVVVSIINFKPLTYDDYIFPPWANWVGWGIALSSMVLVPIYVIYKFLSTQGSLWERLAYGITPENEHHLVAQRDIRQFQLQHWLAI
Test [3] deals with Sodium-dependent serotonin transporter (Homo sapiens, UniProt P31645). Nature of the test: Displacement of [125I]RTI55 from human SERT transfected in COS1 cells. In kind it is cell-based, COS-1.
Sequence of Sodium-dependent serotonin transporter (P31645 whole entry): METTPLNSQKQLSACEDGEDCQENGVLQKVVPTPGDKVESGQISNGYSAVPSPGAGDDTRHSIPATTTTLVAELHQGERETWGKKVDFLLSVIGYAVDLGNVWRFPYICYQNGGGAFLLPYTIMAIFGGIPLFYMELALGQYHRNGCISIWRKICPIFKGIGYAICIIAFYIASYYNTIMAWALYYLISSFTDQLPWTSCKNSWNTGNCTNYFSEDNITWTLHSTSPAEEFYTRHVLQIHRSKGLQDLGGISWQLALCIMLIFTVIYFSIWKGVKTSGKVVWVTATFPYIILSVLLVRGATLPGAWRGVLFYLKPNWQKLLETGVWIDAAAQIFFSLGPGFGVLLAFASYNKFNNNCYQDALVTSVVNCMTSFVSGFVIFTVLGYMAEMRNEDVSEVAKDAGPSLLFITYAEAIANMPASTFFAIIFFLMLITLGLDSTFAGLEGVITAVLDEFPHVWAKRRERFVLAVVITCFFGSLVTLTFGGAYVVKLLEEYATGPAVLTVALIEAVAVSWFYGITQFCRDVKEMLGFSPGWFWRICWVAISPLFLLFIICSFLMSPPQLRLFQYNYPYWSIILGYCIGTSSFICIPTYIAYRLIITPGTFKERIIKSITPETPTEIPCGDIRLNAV
For test [4], the target named is Sodium-dependent dopamine transporter (Homo sapiens, UniProt Q01959). As to the kind of experiment: Displacement of [125I]RTI55 from human DAT transfected in COS1 cells. It is filed as cell-based, COS-1.
Sequence of Sodium-dependent dopamine transporter (Q01959 whole entry): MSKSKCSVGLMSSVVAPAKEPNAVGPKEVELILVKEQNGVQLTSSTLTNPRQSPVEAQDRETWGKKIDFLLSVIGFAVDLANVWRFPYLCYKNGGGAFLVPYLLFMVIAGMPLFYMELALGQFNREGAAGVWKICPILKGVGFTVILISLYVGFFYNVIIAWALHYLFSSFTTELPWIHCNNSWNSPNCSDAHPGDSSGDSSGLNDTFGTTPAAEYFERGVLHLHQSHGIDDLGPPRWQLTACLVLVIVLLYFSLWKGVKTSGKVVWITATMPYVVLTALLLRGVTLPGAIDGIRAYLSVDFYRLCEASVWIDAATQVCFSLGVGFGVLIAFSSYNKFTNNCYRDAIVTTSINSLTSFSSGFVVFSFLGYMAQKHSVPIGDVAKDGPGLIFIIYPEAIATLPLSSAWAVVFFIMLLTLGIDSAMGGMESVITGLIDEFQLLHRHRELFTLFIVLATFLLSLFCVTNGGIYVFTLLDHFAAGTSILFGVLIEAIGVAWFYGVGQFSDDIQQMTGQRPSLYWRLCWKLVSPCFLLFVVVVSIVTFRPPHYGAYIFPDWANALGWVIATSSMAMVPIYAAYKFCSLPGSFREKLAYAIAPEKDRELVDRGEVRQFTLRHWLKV
Test [5] is filed under the species Homo sapiens. As to the kind of experiment: Selectivity for human DAT over human SERT.

pKi: −log10 of the molar value.

What is called pKi is the negative decadic logarithm of the Ki, by convention in mol/L. Read a low pKi as a high Ki.

As for `O=C(NCCF)C1=C(c2ccc(Cl)c(Cl)c2)CCC1`, the Ratio Ki is 110 in the test listed under Homo sapiens [1] and greater than 7100 in the test listed under Homo sapiens [5]. Moreover, the pKi in test [2] is 5.10; in test [3], less than 3.30; in test [4], 7.15.

With `O=C(NC1CCC1)C1=C(c2ccc(Cl)c(Cl)c2)CCC1`, the Ratio Ki in the test filed under Homo sapiens [1] is 5.6; in the test filed under Homo sapiens [5] it was greater than 110. Also, the pKi in test [2] was 4.30; in test [3] it was less than 3.00; in test [4] it was 5.05.

As to `CONC(=O)C1=C(c2ccc(Cl)c(Cl)c2)CCC1`, the Ratio Ki was 11 in the test listed under Homo sapiens [1] and greater than 600 in the test listed under Homo sapiens [5]. Further, the results for the pKi in test [2], in test [3] and in test [4] were 5.04, less than 3.30 and 6.08, respectively.

For `CON(C)C(=O)C1=C(c2ccc(Cl)c(Cl)c2)CCC1`, the Ratio Ki in the test listed under Homo sapiens [1] was 39; in the test filed under Homo sapiens [5], 84. For the same compound, the pKi was 3.60 in test [2], 3.27 in test [3] and 5.19 in test [4].

Take `O=C(OC1CCCCC1)C1=C(c2ccc(Cl)c(Cl)c2)CCC1`: the Ratio Ki in the test filed under Homo sapiens [1] was 11; in the test filed under Homo sapiens [5], greater than 83. Moreover, the pKi was 3.89 in test [2], less than 3.00 in test [3] and 4.92 in test [4].

`CCN(CC)C(=O)C1=C(c2ccc(Cl)c(Cl)c2)CCC1`: the Ratio Ki in the test listed under Homo sapiens [1] came out at 2.2; in the test filed under Homo sapiens [5] it was 3.2. The pKi is 3.68 in test [2], 3.52 in test [3] and 4.03 in test [4].

`Cc1ccccc1OC(=O)C1=C(c2ccc(Cl)c(Cl)c2)CCC1`: the figures for the Ratio Ki in the test listed under Homo sapiens [1] and in the test filed under Homo sapiens [5] were 150 and greater than 2300, respectively. The negative logarithm of the Ki (pKi) was 4.48 in test [2], less than 3.30 in test [3] and 6.66 in test [4].

With `O=C(C1=C(c2ccc(Cl)c(Cl)c2)CCC1)N1CCCC1`, the Ratio Ki in the test filed under Homo sapiens [1] was determined as 7; in the test listed under Homo sapiens [5], 9. The pKi in test [2] was 3.39; in test [3], 3.28; in test [4] it was 4.24.

Regarding `O=C(OCC(F)(F)F)C1=C(c2ccc(Cl)c(Cl)c2)CCC1`, in the test listed under Homo sapiens [1], the Ratio Ki turned out to be 50. For the same compound, the pKi was 3.77 in test [2], less than 3.00 in test [3] and 5.47 in test [4].

With `O=C(OCc1cccs1)C1=C(c2ccc(Cl)c(Cl)c2)CCC1`, the results for the Ratio Ki in the test filed under Homo sapiens [1] and in the test listed under Homo sapiens [5] were 110 and 2300, respectively. In addition, the pKi in test [2] is 4.38; in test [3], 3.04; in test [4], 6.40.

As for `O=C(NCc1cccs1)C1=C(c2ccc(Cl)c(Cl)c2)CCC1`, the Ratio Ki in the test filed under Homo sapiens [1] was 130; in the test listed under Homo sapiens [5], 790. In addition, the figures for the pKi in test [2], in test [3] and in test [4] were 4.74, 3.96 and 6.85, respectively.

Turning to `CC(C)OC(=O)C1=C(c2ccc(Cl)c(Cl)c2)CCC1`, the Ratio Ki in the test listed under Homo sapiens [1] is 10; in the test listed under Homo sapiens [5], 190. Moreover, the pKi in test [2] was 4.59; in test [3], 3.30; in test [4], 5.59.

Turning to `O=C(OCCO)C1=C(c2ccc(Cl)c(Cl)c2)CCC1`, the Ratio Ki came to 30 in the test filed under Homo sapiens [1] and 170 in the test filed under Homo sapiens [5]. Moreover, the pKi in test [2] was 5.05; in test [3] it was 4.30; in test [4], 6.52.

`O=C(Oc1ccccc1)C1=C(c2ccc(Cl)c(Cl)c2)CCC1`: the Ratio Ki is 500 in the test listed under Homo sapiens [1] and greater than 2900 in the test filed under Homo sapiens [5]. In addition, the negative logarithm of the Ki (pKi) in test [2] is 4.07; in test [3], less than 3.30; in test [4] it was 6.77.

On to `O=C(C1=C(c2ccc(Cl)c(Cl)c2)CCC1)N1CCOCC1`, for which the values for the Ratio Ki in the test filed under Homo sapiens [1] and in the test listed under Homo sapiens [5] were 27 and greater than 45, respectively. In addition, the values for the pKi in test [2], in test [3] and in test [4] were 3.52, less than 3.30 and 4.96, respectively.

Turning to `O=C(OCCF)C1=C(c2ccc(Cl)c(Cl)c2)CCC1`, the Ratio Ki turned out to be 12 in the test listed under Homo sapiens [1] and 780 in the test listed under Homo sapiens [5]. In addition, the pKi in test [2] was 5.24; in test [3], 3.41; in test [4], 6.30.

On to `Cc1cccc(OC(=O)C2=C(c3ccc(Cl)c(Cl)c3)CCC2)c1`, for which the values for the Ratio Ki in the test filed under Homo sapiens [1] and in the test filed under Homo sapiens [5] were greater than 1700 and greater than 17000, respectively. The results for the pKi in test [2], in test [3] and in test [4] were less than 4.00, less than 3.00 and 7.22, respectively.

`COC(=O)C1=C(c2ccc(Cl)c(Cl)c2)CCC1`: the Ratio Ki in the test listed under Homo sapiens [1] worked out at 6; in the test listed under Homo sapiens [5], 410.

Turning to `O=C(OCc1ccco1)C1=C(c2ccc(Cl)c(Cl)c2)CCC1`, the values for the Ratio Ki in the test filed under Homo sapiens [1] and in the test filed under Homo sapiens [5] were 41 and 16, respectively. The negative-log Ki (pKi) was 4.21 in test [2], 4.62 in test [3] and 5.82 in test [4].

Consider `O=C(NCc1ccco1)C1=C(c2ccc(Cl)c(Cl)c2)CCC1`, for which the figures for the Ratio Ki in the test listed under Homo sapiens [1] and in the test filed under Homo sapiens [5] were 400 and 800, respectively. For the same compound, the values for the pKi in test [2], in test [3] and in test [4] were 4.92, 4.62 and 7.52, respectively.
